Measured values from ChEMBL document CHEMBL5579794, “Improved synthesis and evaluation of preclinical pharmacodynamic parameters of a new monocyclic β-lactam DPI-2016” (Bioorg Med Chem Lett, 2024).

Tests used:
[1] = Plasma protein binding in mouse at 1 uM incubated for 6 hrs by LC-MS/MS analysis; format: ADME, cell-free; details: read-out: PPB (converted)
[2] = Stability in human plasma at 1 uM measured upto 120 mins by LC-MS/MS analysis; format: ADME, cell-free; details: 2 h
[3] = test system: J774.A1; assay: Cytotoxicity against mouse J774.A1 cells at upto 300 ug/ml relative to control; format: toxicity, cell-based; details: up to 300 µg/mL
[4] = test system: HepG2; assay: Cytotoxicity against human HepG2 cells at upto 300 ug/ml relative to control; format: toxicity, cell-based; details: up to 300 µg/mL
[5] = Cytotoxicity against mouse BALB/3T3 clone A31 cells at upto 300 ug/ml relative to control; format: toxicity, cell-based; details: up to 300 µg/mL
[6] = test system: NRK-52E; assay: Cytotoxicity against rat NRK-52E cells at upto 300 ug/ml relative to control; format: toxicity, cell-based; details: up to 300 µg/mL
[7] = test system: H9c2; assay: Cytotoxicity against rat H9c2 cells at upto 300 ug/ml relative to control; format: toxicity, cell-based; details: up to 300 µg/mL
[8] = test system: THP-1; assay: Cytotoxicity against human THP-1 cells at upto 300 ug/ml relative to control; format: toxicity, cell-based; details: up to 300 µg/mL
[9] = test system: H9; assay: Cytotoxicity against human H9 cells at upto 300 ug/ml relative to control; format: toxicity, cell-based; details: up to 300 µg/mL
[10] = Half life in male Sprague-Dawley rat at 2 mg/kg by LC-MS/MS analysis; format: ADME, organism-based; details: in vivo
[11] = Volume of distribution in male Sprague-Dawley rat at 2 mg/kg by LC-MS/MS analysis; format: ADME, organism-based; details: in vivo
[12] = test system: Pseudomonas aeruginosa; assay: Antibacterial activity against Pseudomonas aeruginosa infected in BalbC mouse model of Septicaemia infection assessed as survival rate at 4 mg/kg administered 30 mins post infection and measured after 1 day relative to control; format: functional; details: 24 h
[13] = test system: Pseudomonas aeruginosa; assay: Antibacterial activity against Pseudomonas aeruginosa infected in BalbC mouse model of Septicaemia infection assessed as survival rate at 4 mg/kg administered 30 mins post infection and measured after 2 days relative to control; format: functional; details: 48 h, time 2 day
[14] = test system: Pseudomonas aeruginosa; assay: Antibacterial activity against Pseudomonas aeruginosa infected in BalbC mouse model of Septicaemia infection assessed as survival rate at 4 mg/kg administered 30 mins post infection and measured after 3 days relative to control; format: functional; details: 72 h, time 3 day
[15] = test system: Pseudomonas aeruginosa; assay: Antibacterial activity against Pseudomonas aeruginosa infected in BalbC mouse model of Septicaemia infection assessed as survival rate at 4 mg/kg administered 30 mins post infection and measured after 4 days relative to control; format: functional; details: 96 h, time 4 day
[16] = test system: Pseudomonas aeruginosa; assay: Antibacterial activity against Pseudomonas aeruginosa infected in BalbC mouse model of Septicaemia infection assessed as survival rate at 4 mg/kg administered 30 mins post infection and measured after 5 days relative to control; format: functional; details: 120 h, time 5 day
[17] = test system: Pseudomonas aeruginosa; assay: Antibacterial activity against Pseudomonas aeruginosa infected in BalbC mouse model of Septicaemia infection assessed as survival rate at 4 mg/kg administered 30 mins post infection and measured after 6 days relative to control; format: functional; details: 144 h, time 6 day
[18] = test system: Pseudomonas aeruginosa; assay: Antibacterial activity against Pseudomonas aeruginosa infected in BalbC mouse model of Septicaemia infection assessed as survival rate at 4 mg/kg administered 30 mins post infection and measured after 7 days relative to control; format: functional; details: 168 h, time 7 day
[19] = test system: Pseudomonas aeruginosa; assay: Antibacterial activity against Pseudomonas aeruginosa infected in BalbC mouse model of Septicaemia infection assessed as survival rate at 8 mg/kg administered 30 mins post infection and measured after 1 day relative to control; format: functional; details: 24 h
[20] = test system: Pseudomonas aeruginosa; assay: Antibacterial activity against Pseudomonas aeruginosa infected in BalbC mouse model of Septicaemia infection assessed as survival rate at 8 mg/kg administered 30 mins post infection and measured after 2 days relative to control; format: functional; details: 48 h, time 2 day
[21] = test system: Pseudomonas aeruginosa; assay: Antibacterial activity against Pseudomonas aeruginosa infected in BalbC mouse model of Septicaemia infection assessed as survival rate at 8 mg/kg administered 30 mins post infection and measured after 3 days relative to control; format: functional; details: 72 h, time 3 day
[22] = test system: Pseudomonas aeruginosa; assay: Antibacterial activity against Pseudomonas aeruginosa infected in BalbC mouse model of Septicaemia infection assessed as survival rate at 8 mg/kg administered 30 mins post infection and measured after 4 days relative to control; format: functional; details: 96 h, time 4 day
[23] = test system: Pseudomonas aeruginosa; assay: Antibacterial activity against Pseudomonas aeruginosa infected in BalbC mouse model of Septicaemia infection assessed as survival rate at 8 mg/kg administered 30 mins post infection and measured after 6 days relative to control; format: functional; details: 144 h, time 6 day
[24] = test system: Pseudomonas aeruginosa; assay: Antibacterial activity against Pseudomonas aeruginosa infected in BalbC mouse model of Septicaemia infection assessed as survival rate at 8 mg/kg administered 30 mins post infection and measured after 7 days relative to control; format: functional; details: 168 h, time 7 day
[25] = test system: Pseudomonas aeruginosa; assay: Antibacterial activity against Pseudomonas aeruginosa infected in BalbC mouse model of Septicaemia infection assessed as survival rate at 64 mg/kg administration starting at 0.5 to 2 hrs post infection and measured after 1 day relative to control; format: functional; details: 24 h
[26] = test system: Pseudomonas aeruginosa; assay: Antibacterial activity against Pseudomonas aeruginosa infected in BalbC mouse model of Septicaemia infection assessed as survival rate at 64 mg/kg administration starting at 0.5 to 2 hrs post infection and measured after 2 days relative to control; format: functional; details: 48 h, time 2 day
[27] = test system: Pseudomonas aeruginosa; assay: Antibacterial activity against Pseudomonas aeruginosa infected in BalbC mouse model of Septicaemia infection assessed as survival rate at 64 mg/kg administration starting at 0.5 to 2 hrs post infection and measured after 3 days relative to control; format: functional; details: 72 h, time 3 day
[28] = test system: Pseudomonas aeruginosa; assay: Antibacterial activity against Pseudomonas aeruginosa infected in BalbC mouse model of Septicaemia infection assessed as survival rate at 64 mg/kg administration starting at 0.5 to 2 hrs post infection and measured after 4 days relative to control; format: functional; details: 96 h, time 4 day
[29] = test system: Pseudomonas aeruginosa; assay: Antibacterial activity against Pseudomonas aeruginosa infected in BalbC mouse model of Septicaemia infection assessed as survival rate at 64 mg/kg administration starting at 0.5 to 2 hrs post infection and measured after 5 days relative to control; format: functional; details: 120 h, time 5 day
[30] = test system: Pseudomonas aeruginosa; assay: Antibacterial activity against Pseudomonas aeruginosa infected in BalbC mouse model of Septicaemia infection assessed as survival rate at 64 mg/kg administration starting at 0.5 to 2 hrs post infection and measured after 6 days relative to control; format: functional; details: 144 h, time 6 day
[31] = test system: Pseudomonas aeruginosa; assay: Antibacterial activity against Pseudomonas aeruginosa infected in BalbC mouse model of Septicaemia infection assessed as survival rate at 64 mg/kg administration starting at 0.5 to 2 hrs post infection and measured after 7 days relative to control; format: functional; details: 168 h, time 7 day
[32] = test system: Pseudomonas aeruginosa; assay: Antibacterial activity against Pseudomonas aeruginosa infected in BalbC mouse model of Septicaemia infection assessed as survival rate at 128 mg/kg administration starting at 0.5 to 2 hrs post infection and measured after 3 days relative to control; format: functional; details: 72 h, time 3 day
[33] = test system: Pseudomonas aeruginosa; assay: Antibacterial activity against Pseudomonas aeruginosa infected in BalbC mouse model of Septicaemia infection assessed as survival rate at 128 mg/kg administration starting at 0.5 to 2 hrs post infection and measured after 4 days relative to control; format: functional; details: 96 h, time 4 day
[34] = test system: Pseudomonas aeruginosa; assay: Antibacterial activity against Pseudomonas aeruginosa infected in BalbC mouse model of Septicaemia infection assessed as survival rate at 128 mg/kg administration starting at 0.5 to 2 hrs post infection and measured after 5 days relative to control; format: functional; details: 120 h, time 5 day
[35] = test system: Pseudomonas aeruginosa; assay: Antibacterial activity against Pseudomonas aeruginosa infected in BalbC mouse model of Septicaemia infection assessed as survival rate at 128 mg/kg administration starting at 0.5 to 2 hrs post infection and measured after 6 days relative to control; format: functional; details: 144 h, time 6 day
[36] = test system: Pseudomonas aeruginosa; assay: Antibacterial activity against Pseudomonas aeruginosa infected in BalbC mouse model of Septicaemia infection assessed as survival rate at 128 mg/kg administration starting at 0.5 to 2 hrs post infection and measured after 7 days relative to control; format: functional; details: 168 h, time 7 day

Cc1sc(N)nc1/C(=N/O[C@@H](COc1ccc(C(=N)N[C@@H]2CCNC2)cc1)C(=O)O)C(=O)N[C@@H]1C(=O)N(OS(=O)(=O)O)C1(C)C
100%: survival at 8 mg/kg [19]
0.532: fraction unbound at 6 h, 1 µM [1]
> 80%: Activity [3] | Activity [4] | Activity [5] | Activity [6] | Activity [7] | Activity [8] | Activity [9]
60%: survival at 4 mg/kg [12] | survival at 4 mg/kg [13] | survival at 8 mg/kg [20] | survival at 8 mg/kg [21] | survival at 8 mg/kg [22] | survival at 8 mg/kg [23] | survival at 8 mg/kg [24]
30%: survival at 4 mg/kg [14] | survival at 4 mg/kg [15] | survival at 4 mg/kg [16] | survival at 4 mg/kg [17] | survival at 4 mg/kg [18]
Stable: Stability [2]
24 min: half-life [10]
0.37 L/kg: Vd [11]

C[C@H]1[C@H](NC(=O)/C(=N\OC(C)(C)C(=O)O)c2csc(N)n2)C(=O)N1S(=O)(=O)O [AZTREONAM]
100%: survival at 64 mg/kg [25]
60%: survival at 64 mg/kg [26] | survival at 64 mg/kg [27] | survival at 64 mg/kg [28] | survival at 64 mg/kg [29] | survival at 64 mg/kg [30] | survival at 64 mg/kg [31]
90%: survival at 128 mg/kg [32] | survival at 128 mg/kg [33] | survival at 128 mg/kg [34] | survival at 128 mg/kg [35] | survival at 128 mg/kg [36]
